# ChEMBL document CHEMBL1909046, “DrugMatrix in vitro pharmacology data”
# Assays:
# [1] = DRUGMATRIX: Phosphodiesterase PDE3 enzyme inhibition (substrate: [3H]cAMP + cAMP); assay type: tissue-based, Homo sapiens; conditions: platelet, Not Active = under 50% inhibition at 10 µM
# [2] = molecular target: T1, Cytochrome P450 2A6 (Homo sapiens, UniProt P11509); conditions: bti-tn-5b1-4; also: in other assays of this panel Not Active means under 50% inhibition at 10 µM
# T1 sequence (P11509 whole entry): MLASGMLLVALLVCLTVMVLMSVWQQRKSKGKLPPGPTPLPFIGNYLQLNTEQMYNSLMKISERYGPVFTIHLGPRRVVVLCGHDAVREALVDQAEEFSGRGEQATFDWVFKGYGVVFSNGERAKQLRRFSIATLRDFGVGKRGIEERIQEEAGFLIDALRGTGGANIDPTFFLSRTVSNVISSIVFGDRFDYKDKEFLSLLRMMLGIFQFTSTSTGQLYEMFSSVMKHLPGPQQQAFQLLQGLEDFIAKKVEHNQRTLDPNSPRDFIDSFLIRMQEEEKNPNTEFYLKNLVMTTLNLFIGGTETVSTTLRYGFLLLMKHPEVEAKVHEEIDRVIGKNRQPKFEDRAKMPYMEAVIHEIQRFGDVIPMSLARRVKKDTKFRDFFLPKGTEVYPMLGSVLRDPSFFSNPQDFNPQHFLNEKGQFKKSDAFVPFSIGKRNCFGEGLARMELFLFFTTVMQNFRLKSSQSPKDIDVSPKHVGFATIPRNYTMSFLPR
# [3] = DRUGMATRIX: Glutamate, NMDA, Phencyclidine radioligand binding (ligand: [3H] TCP); assay type: cell membranes, Rattus norvegicus, Wistar, Cerebral cortex, Membrane; conditions: Not Active = under 50% inhibition at 10 µM
# [4] = molecular target: Receptor tyrosine-protein kinase erbB-2 (Homo sapiens, UniProt P04626); assay: biochemical; assay type: cell-based, Insect cells; conditions: insect cells;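 also: inhibition of HER2 kinase enzyme activity, measured with Poly(Glu:Tyr) as the phosphorylation substrate; in other assays of this panel Not Active means under 50% inhibition at 10 µM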
# [5] = molecular target: T2, Angiotensin-converting enzyme (Oryctolagus cuniculus, UniProt P12822); assay type: tissue-based, Lung;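 also: enzymatic inhibition of angiotensin-converting enzyme measured with FAPGG as the substrate; in other assays of this panel Not Active means under 50% inhibition at 10 µM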
# T2 sequence (P12822 whole entry): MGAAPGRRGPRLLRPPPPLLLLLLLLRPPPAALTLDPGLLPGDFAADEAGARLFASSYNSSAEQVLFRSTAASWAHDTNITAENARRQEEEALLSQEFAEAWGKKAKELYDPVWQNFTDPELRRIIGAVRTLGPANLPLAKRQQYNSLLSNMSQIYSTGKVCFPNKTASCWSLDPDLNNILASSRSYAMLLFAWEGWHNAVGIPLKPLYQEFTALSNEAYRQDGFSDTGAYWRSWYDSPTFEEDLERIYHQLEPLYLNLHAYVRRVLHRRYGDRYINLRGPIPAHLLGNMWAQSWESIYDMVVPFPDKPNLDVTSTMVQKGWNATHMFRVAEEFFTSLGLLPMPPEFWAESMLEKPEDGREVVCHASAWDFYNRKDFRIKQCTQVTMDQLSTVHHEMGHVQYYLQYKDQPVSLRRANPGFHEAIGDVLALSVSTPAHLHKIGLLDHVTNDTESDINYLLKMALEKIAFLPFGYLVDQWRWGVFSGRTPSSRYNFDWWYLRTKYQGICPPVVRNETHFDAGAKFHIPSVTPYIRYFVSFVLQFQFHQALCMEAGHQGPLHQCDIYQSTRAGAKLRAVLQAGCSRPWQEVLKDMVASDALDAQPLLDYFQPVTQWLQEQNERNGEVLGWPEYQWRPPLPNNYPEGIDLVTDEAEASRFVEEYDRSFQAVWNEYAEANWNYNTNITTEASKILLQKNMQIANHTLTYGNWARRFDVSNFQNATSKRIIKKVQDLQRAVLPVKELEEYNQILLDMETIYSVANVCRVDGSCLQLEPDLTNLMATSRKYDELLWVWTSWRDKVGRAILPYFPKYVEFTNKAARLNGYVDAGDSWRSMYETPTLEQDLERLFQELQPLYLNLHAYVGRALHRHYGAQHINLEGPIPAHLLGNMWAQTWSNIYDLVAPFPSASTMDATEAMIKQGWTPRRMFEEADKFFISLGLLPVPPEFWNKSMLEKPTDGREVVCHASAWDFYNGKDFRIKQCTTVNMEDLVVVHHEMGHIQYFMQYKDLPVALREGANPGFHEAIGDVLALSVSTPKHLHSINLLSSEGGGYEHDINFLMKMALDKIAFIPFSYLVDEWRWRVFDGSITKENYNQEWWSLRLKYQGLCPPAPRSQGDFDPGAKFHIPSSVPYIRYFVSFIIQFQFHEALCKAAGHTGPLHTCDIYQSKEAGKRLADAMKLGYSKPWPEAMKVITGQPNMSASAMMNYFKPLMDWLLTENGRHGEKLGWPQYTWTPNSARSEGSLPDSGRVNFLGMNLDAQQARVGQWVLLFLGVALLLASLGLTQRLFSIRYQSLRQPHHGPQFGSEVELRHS
# [6] = molecular target: T3, Alpha-2C adrenergic receptor (Homo sapiens, UniProt P18825); assay: DRUGMATRIX: Adrenergic Alpha-2C radioligand binding (ligand: [3H] MK-912); assay type: cell membranes, Sf9, Membrane; conditions: sf9
# T3 sequence (P18825 whole entry): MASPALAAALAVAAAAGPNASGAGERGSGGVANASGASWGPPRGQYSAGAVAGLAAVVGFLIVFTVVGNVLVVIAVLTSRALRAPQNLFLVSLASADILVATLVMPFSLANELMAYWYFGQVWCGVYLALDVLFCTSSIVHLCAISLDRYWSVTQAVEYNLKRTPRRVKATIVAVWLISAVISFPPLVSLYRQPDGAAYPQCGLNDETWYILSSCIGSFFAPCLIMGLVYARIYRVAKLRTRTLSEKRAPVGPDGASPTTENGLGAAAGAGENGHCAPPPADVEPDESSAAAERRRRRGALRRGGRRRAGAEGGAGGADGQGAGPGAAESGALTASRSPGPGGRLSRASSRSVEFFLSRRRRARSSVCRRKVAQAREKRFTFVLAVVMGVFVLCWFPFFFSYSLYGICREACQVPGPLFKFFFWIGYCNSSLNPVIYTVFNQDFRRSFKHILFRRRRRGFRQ
# [7] = DRUGMATRIX: ATPase, Na+/K+ enzyme inhibition (substrate: ATP); assay type: tissue-based, Sus scrofa, Heart; conditions: Not Active = under 50% inhibition at 10 µM
Molecule,IC50 [1],Ki [1],IC50 [2],Ki [2],IC50 [3],Ki [3],IC50 [4],IC50 [5],IC50 [6],IC50 [7],Ki [7],IC50 ([4]; read-out: IC50) [µM],Ki [5],Ki [6],IC50 ([1]; read-out: IC50) [µM],Ki [4]
CC[C@H]1OC(=O)[C@H](C)[C@@H](O[C@H]2C[C@@](C)(OC)[C@@H](O)[C@H](C)O2)[C@H](C)[C@@H](O[C@@H]2O[C@H](C)C[C@H](N(C)C)[C@H]2O)[C@](C)(O)C[C@@H](C)CN(C)[C@H](C)[C@@H](O)[C@]1(C)O [AZITHROMYCIN],Not Active,Not Active,Not Active,Not Active,Not Active,Not Active,Not Active,Not Active,Not Active,Not Active,Not Active,,,,,
CC(=O)OCC(CCn1cnc2cnc(N)nc21)COC(C)=O [FAMCICLOVIR],Not Active,Not Active,Not Active,Not Active,Not Active,Not Active,Not Active,Not Active,Not Active,Not Active,Not Active,,,,,
O=C(c1ccccc1Cl)N1CCC(Cc2ccccc2)CC1,Not Active,Not Active,Not Active,Not Active,Not Active,Not Active,Not Active,Not Active,Not Active,Not Active,Not Active,,,,,
Cc1c(F)c(N2CCNC(C)C2)cc2c1c(=O)c(C(=O)O)cn2C1CC1 (stereo not given) [GREPAFLOXACIN],Not Active,Not Active,Not Active,Not Active,Not Active,Not Active,Not Active,Not Active,Not Active,Not Active,Not Active,,,,,
CC(C(=O)O)c1ccc(-c2ccccc2)c(F)c1 (stereo not given) [FLURBIPROFEN],Not Active,Not Active,Not Active,Not Active,Not Active,Not Active,Not Active,Not Active,Not Active,Not Active,Not Active,,,,,
COC(=O)c1ccccc1O [METHYL SALICYLATE],Not Active,Not Active,Not Active,Not Active,Not Active,Not Active,Not Active,Not Active,Not Active,Not Active,Not Active,,,,,
O=C(O)c1cccnc1 [NIACIN],Not Active,Not Active,Not Active,Not Active,Not Active,Not Active,Not Active,Not Active,Not Active,Not Active,Not Active,,,,,
CC[C@H](C)C(=O)O[C@H]1C[C@@H](C)C=C2C=C[C@H](C)[C@H](CC[C@@H]3C[C@@H](O)CC(=O)O3)[C@H]21 [LOVASTATIN],Not Active,Not Active,Not Active,Not Active,Not Active,Not Active,Not Active,Not Active,Not Active,Not Active,Not Active,,,,,
COBALT(II) ACETYLACETONATE,Not Active,Not Active,Not Active,Not Active,Not Active,Not Active,,Not Active,Not Active,Not Active,Not Active,3.17,Not Active,Not Active,,
CN(C(=O)CCCOc1ccc2[nH]c(=O)ccc2c1)C1CCCCC1 [CILOSTAMIDE],,,Not Active,Not Active,Not Active,Not Active,Not Active,Not Active,Not Active,Not Active,Not Active,,,,0.055,
INSULIN HUMAN,Not Active,Not Active,Not Active,Not Active,Not Active,Not Active,Not Active,Not Active,Not Active,Not Active,Not Active,,Not Active,Not Active,,Not Active
O=C(O)c1cc(=O)c2c(OCC(O)COc3cccc4oc(C(=O)O)cc(=O)c34)cccc2o1 [CROMOLYN],Not Active,Not Active,Not Active,Not Active,Not Active,Not Active,Not Active,Not Active,Not Active,Not Active,Not Active,,,,,
Cc1cccc(Nc2cc(Cl)nc(SCC(=O)O)n2)c1C [PIRINIXIC ACID],Not Active,Not Active,Not Active,Not Active,Not Active,Not Active,Not Active,Not Active,Not Active,Not Active,Not Active,,,,,
CC[C@H]1OC(=O)[C@H](C)[C@@H](O[C@H]2C[C@@](C)(OC)[C@@H](O)[C@H](C)O2)[C@H](C)[C@@H](O[C@@H]2O[C@H](C)C[C@H](N(C)C)[C@H]2O)[C@](C)(OC)C[C@@H](C)C(=O)[C@H](C)[C@@H](O)[C@]1(C)O [CLARITHROMYCIN],Not Active,Not Active,Not Active,Not Active,Not Active,Not Active,Not Active,Not Active,Not Active,Not Active,Not Active,,,,,
CCc1oc2ccccc2c1C(=O)c1cc(Br)c(O)c(Br)c1 [BENZBROMARONE],Not Active,Not Active,Not Active,Not Active,Not Active,Not Active,Not Active,Not Active,Not Active,Not Active,Not Active,,,,,
CC[C@]1(O)CC[C@H]2[C@@H]3CCC4=CCCC[C@@H]4[C@H]3CC[C@@]21C,Not Active,Not Active,Not Active,Not Active,Not Active,Not Active,Not Active,Not Active,Not Active,Not Active,Not Active,,,,,
